In patent US20230131339A1, “EPI-X4 BASED PEPTIDES AND DERIVATIVES THEREOF” (Universitaet Ulm, priority 2020, published 2023):
Like-named read-outs stand apart in the source and are kept apart here. Where a SMILES comes first, the peptide text is derived from it. Where no end group is shown, it is not given here. Side-chain parts run from the residue outwards. [ ]: non-standard residue; d: D form. The star is where a group is joined. DOTA = O=C(O)CN1CCN(CC(=O)O)CCN(CC(=O)*)CCN(CC(=O)O)CC1; Palmitoyl = CCCCCCCCCCCCCCCC(=O)*; Myristoyl = CCCCCCCCCCCCCC(=O)*; Glu = glutamate linker

What was measured:
[1] = system: CXCR4-tropic X4-HIV-1 (NL4-3); type: cell-based
CXCR4 = target: T1, CXCR4 (Homo sapiens, UniProt P61073); test: Antibody competition assay (12G5-assay) on SupT1 cells; type: binding
T1 construct: endogenous in cells; host or cells: SupT1 cells
Procedure: Second, the activity was tested by an antibody competition assay (FIG. 2). Values determined by the competition assay represent the potency of a compound to compete with an antibody that specifically binds to the binding pocket (ECL2) of CXCR4. […] To the right of the diagrams, an assignment of the curves to the tested peptides is explained. […] Three independent experiments were carried out for each peptide in each assay. The error bars refer to the standard deviation.
Antibody competition assay. Competition of compounds with antibody binding was performed on SupT1 cells. For that cells were washed in PBS containing 1% FCS and 50,000 cells were then seeded per well in a 96 V-well plate. Buffer was removed and plates were precooled at 4° C. Compounds were diluted in PBS and antibody (clone 12G5, APC labelled) was diluted in PBS containing 1% FCS. The antibody was used at a concentration closed to its determined Kd. 15 μl compounds were then added to the cells and 15 μl antibody immediately afterwards. Plates were incubated at 4° C. in the dark for 2 hours. Afterwards cells were washed twice with PBS containing 1% FCS and fixed with 2% PFA. Antibody binding was analyzed by flow cytometry (FACS CytoFLEX; Beckman Coulter®).

[2] = system: CXCL12-induced AKT signaling; test: ERK/AKT signaling assay in SupT1 cells: AKT phosphorylation; type: cell-based; settings: 10 μM
Procedure: Third, the activity of the claimed EPI-X4 derivatives was tested by the effect on CXCL12/CXCR4-mediated ERK (Extracellular-signal Regulated Kinases) and AKT (a serine/threonine-protein kinase) signaling (FIG. 3). In that assay CXCR4 expressing cells are stimulated with the CXCR4 chemokine-ligand CXCL12, which subsequently leads to phosphorylation of ERK and AKT. Preincubation of cells with CXCR4-antagonists blocks those pathways. […] Two or three independent experiments were carried out in triplicates for each peptide in each assay. The error bars refer to the standard deviation.
ERK/AKT signaling assay. CXCL12 induced ERK and AKT phosphorylation was determined in SupT1 cells. For this, 100,000 cells were seeded per well in a 96-V well plate in 100 μl medium supplemented with 1% FCS. Cells were incubated for 2 hours at 37° C. before 5 μl of compounds were added. After 15 min incubation at 37° C. cells were stimulated by adding 5 μl CXCL12 diluted in PBS to reach a final concentration of 100 ng/ml. Cells were further incubated for 2 min before the reaction was stopped by adding 20 μl of 10% PFA. Cells were fixed for 15 min at 4° C. before PFA was removed and cells permeabilized by adding 100 μl ice cold methanol. After 15 min at 4° C. the methanol was removed, cells were washed and 30 μl primary antibody was added (phospho-p44/42 MAPK (Erk1) (Tyr204)/(Erk2) (Tyr187) (D1H6G) mouse mAb #5726; phosphor-Akt (Ser473) (193H12) rabbit mAb #4058 Cell Signaling) for 1 hour at 4° C. After the antibody was removed and cells were washed secondary antibody was added for 30 min. Cells were washed afterwards and subsequently analyzed by flow cytometry.

[3] = Functional stability assay in human plasma
Procedure: Fourth, the stability of peptides in human plasma and whole human blood was tested (FIG. 4). The functional stability of EPI-X4 (SEQ ID NO.: 1) derivatives was screened using a CXCR4 antibody-based screening approach. Peptides were diluted in full human plasma or blood (>99%) and the functional activity was then measured after either 2 hours or 8 hours and compared to a sample that was not incubated in plasma or blood.
In this test, the peptides were incubated in human plasma for a certain time period.
Stability assay. Whole blood was collected from healthy donors in EDTA tubes and directly used or subsequently centrifuged for 15 min at 2,500×g to obtain plasma. Plasma from 6 donors was pooled and stored in aliquots at −80° C. Compounds were 200-fold diluted in human plasma or whole human blood to reach final concentrations of 20 μM. The t=0 sample was immediately taken and stored at −80° C. Plasma/compound or blood/compound mixture was then transferred to 37° C. and shook at 350 rpm. At given time points samples were taken and stored at −80° C.°. For measuring the functional activity of the plasma/peptide samples, the mixtures were thawed and diluted in ice cold PBS. 12G5-APC antibody competition was then performed as described before. For blood/peptide functional stability, samples were thawed and centrifuged at 14,000 rpm to remove cells and debris. The supernatant was then diluted in PBS and 12G5-antibody competition assay was performed. After the 2 hours incubation, the cells were washed and 50 μl of 1-step-Fix/Lyse solution (Thermo Fisher #00-5333-54) was added for 15 minutes at room temperature. Afterwards cells were washed again and analyzed for bound antibody.

T1 sequence (P61073 whole entry): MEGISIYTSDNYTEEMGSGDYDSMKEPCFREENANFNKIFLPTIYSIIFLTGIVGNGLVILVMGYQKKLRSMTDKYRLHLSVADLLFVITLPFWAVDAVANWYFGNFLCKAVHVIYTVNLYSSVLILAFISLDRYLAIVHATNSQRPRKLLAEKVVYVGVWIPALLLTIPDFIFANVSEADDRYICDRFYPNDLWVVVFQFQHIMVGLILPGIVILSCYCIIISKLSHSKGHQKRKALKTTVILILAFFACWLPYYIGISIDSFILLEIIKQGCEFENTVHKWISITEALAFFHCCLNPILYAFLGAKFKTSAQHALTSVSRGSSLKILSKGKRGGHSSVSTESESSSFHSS

Molecule: CCCCCCCCCCCCCCCC(=O)NCCCC[C@H](NC(=O)[C@H](CCCNC(=N)N)NC(=O)[C@H](CO)NC(=O)[C@H](Cc1c[nH]c2ccccc12)NC(=O)[C@H](CCCNC(=N)N)NC(=O)[C@H](CCSC)NC(=O)[C@H](N)CC(C)C)C(=O)N[C@@H](CCSC)C(=O)N1CCC[C@H]1C(N)=O [JM #178, d-LMRWSRK(Pal)MP-NH2] (H-[dL]MRWSRK(Palmitoyl)MP-NH2; N-terminus assumed)
- anti-HIV-1 activity (in words) [1]: strongly increased anti-HIV-1 activity
- IC50 (CXCR4): 2 nM

Molecule: c1cc(CN2CCCNCCNCCCNCC2)ccc1CN1CCCNCCNCCCNCC1 [AMD3100, reference compound]
- reduction of CXCL12-induced AKT signaling [2]: about 60%

Molecule: SC037: PVP-coupled peptide JM #21, average molecular mass 20 kDa (ILRWSRKLPCVS; also: PVP-coupled, average 20 kDa)
- anti-HIV-1 activity (in words) [1]: comparable activity as JM #21
- antibody competition / binding to CXCR4 (in words) (CXCR4): comparable activity as JM #21

Molecule: CSCC[C@@H](N)C(=O)N[C@@H](CC(C)C)C(=O)N[C@@H](CCCNC(=N)N)C(=O)N[C@@H](Cc1c[nH]c2ccccc12)C(=O)N[C@@H](CO)C(=O)N[C@@H](CCCNC(=N)N)C(=O)N[C@@H](CCCCN)C(=O)N[C@@H](CCSC)C(=O)N1CCC[C@H]1C(=O)N[C@@H](CS)C(=O)N[C@H](C(=O)N[C@@H](CO)C(=O)O)C(C)C [JM #28] (H-[dM]LRWSRKMPCVS-OH; C-terminus assumed)
- remaining (relative) activity after 2 hours of plasma incubation ([3]; human plasma, 2 hours): 96%
- remaining (relative) activity after 8 hours of plasma incubation ([3]; human plasma, 8 hours): 77%
- IC50 ([1]; CXCR4-tropic X4- (NL4-3)): 246 nM

Molecule: SC001: DSPE-coupled derivative (via PEG), one peptide copy (ILRWSRKLPCVS; also: DSPE conjugate via PEG, one peptide copy, site not given here)
- anti-HIV-1 activity (in words) [1]: higher activity than cholesterol-coupled SC043
- antibody competition / binding to CXCR4 (in words) (CXCR4): higher activity than cholesterol-coupled SC043

Molecule: SC024: PEG-coupled peptide JM #21, average molecular mass 20 kDa (ILRWSRKLPCVS; also: coupled to PEG 20 kDa, site not given here)
- remaining (relative) activity after 8 hours of plasma incubation ([3]; human, plasma, 8 h): 30%
- anti-HIV-1 activity (in words) [1]: comparable to the state of the art CXCR4-antagonist AMD3100 and JM #21

Molecule: SC066: PEG-coupled JM #21, two peptide copies on one end of PEG, average molecular mass 20 kDa (ILRWSRKLPCVS; also: PEG-coupled, two peptide copies on one end, average 20 kDa)
- anti-HIV-1 activity (in words) [1]: comparable to the state of the art CXCR4-antagonist AMD3100 and JM #21
- antibody competition / binding to CXCR4 (in words) (CXCR4): even higher activity than JM #21

Molecule: SC042: PVA-coupled peptide JM #21, average molecular mass 20 kDa (ILRWSRKLPCVS; also: PVA-coupled, average 20 kDa)
- anti-HIV-1 activity (in words) [1]: comparable activity as JM #21
- antibody competition / binding to CXCR4 (in words) (CXCR4): comparable activity as JM #21

Molecule: CC(C)C[C@H](NC(=O)[C@@H](NC(=O)[C@@H]1CCCN1C(=O)[C@@H](NC(=O)[C@H](CO)NC(=O)[C@@H](NC(=O)[C@H](CCC(N)=O)NC(=O)[C@@H]1CCCN1C(=O)[C@@H](NC(=O)[C@H](CCCCN)NC(=O)[C@H](CCCCN)NC(=O)[C@@H](NC(=O)[C@H](Cc1ccc(O)cc1)NC(=O)[C@H](CCCNC(=N)N)NC(=O)[C@@H](NC(=O)[C@@H](N)CC(C)C)C(C)C)[C@@H](C)O)C(C)C)C(C)C)[C@@H](C)O)[C@@H](C)O)C(=O)O [EPI-X4] (H-LVRYTKKVPQVSTPTL-OH; N-terminus and C-terminus assumed)
- half-life at 20 μM ([3]; human, plasma): 17 min
- reduction of CXCL12-induced AKT signaling [2]: about 40%

Molecule: SC069: DSPE-coupled derivative (via PEG), two peptide copies on one end (ILRWSRKLPCVS; also: DSPE-coupled via PEG, two peptide copies on one end)
- anti-HIV-1 activity (in words) [1]: higher activity than cholesterol-coupled SC043
- antibody competition / binding to CXCR4 (in words) (CXCR4): higher activity than cholesterol-coupled SC043

Molecule: SC033: PEG-coupled peptide JM #21, average molecular mass 5 kDa (ILRWSRKLPCVS; also: PEG-coupled, average 5 kDa, attachment site not given here)
- remaining (relative) activity after 8 hours of plasma incubation ([3]; human, plasma, 8 h): 72%
- anti-HIV-1 activity (in words) [1]: comparable to the state of the art CXCR4-antagonist AMD3100 and JM #21

Molecule: ILRWSRK(Glu-Myr)LPCVS (ILRWSRK([Glu-Myristoyl])LPCVS) [JM #204]
- remaining activity in plasma in vivo 4 hours post injection (mouse, in vivo, iv, 4 h): lost

Molecule: JM #206: JM #21 with DOTA conjugated via an additional lysine coupled to the C-terminal amino acid of the peptide (ILRWSRKLPCVSK(DOTA))
- anti-HIV-1 activity (in words) [1]: suppressed HIV-1 infection with similar potency as the non-conjugated peptide
- antibody competition / binding to CXCR4 (in words) (CXCR4): displaced the antibody as efficiently as the non-conjugated JM #21

Molecule: CCCCCCCCCCCCCCCC(=O)NCCCC[C@H](NC(=O)[C@H](CCCNC(=N)N)NC(=O)[C@H](CO)NC(=O)[C@H](Cc1c[nH]c2ccccc12)NC(=O)[C@H](CCCNC(=N)N)NC(=O)[C@H](CCSC)NC(=O)[C@H](N)CC(C)C)C(N)=O [JM #180, d-LMRWSRK(Pal)-NH2] (H-[dL]MRWSRK(Palmitoyl)-NH2)
- remaining activity in plasma in vivo 4 hours post injection (mice, i.v. tail vein, 4 hours post injection): 29%
- remaining activity in plasma in vivo 8 hours post injection (mice, i.v. tail vein, 8 hours post injection): about 9%
- anti-HIV-1 activity (in words) [1]: strongly increased anti-HIV-1 activity

Molecule: SC029: PEG 20 kDa telechelic peptide conjugate, JM #21 copies coupled to different ends of the polymer (ILRWSRKLPCVS; also: PEG 20 kDa conjugate, peptide copies at both polymer ends, site not given here)
- remaining (relative) activity after 8 hours of plasma incubation ([3]; human, plasma, 8 h): 38%
- anti-HIV-1 activity (in words) [1]: comparable to the state of the art CXCR4-antagonist AMD3100 and JM #21

Molecule: JM #207: JM #122 with DOTA conjugated via an additional lysine coupled to the C-terminal amino acid of the peptide (ILRWSRKLPSVSK(DOTA))
- anti-HIV-1 activity (in words) [1]: suppressed HIV-1 infection with similar potency as the non-conjugated peptide
- antibody competition / binding to CXCR4 (in words) (CXCR4): displaced the antibody as efficiently as the non-conjugated JM #21

Molecule: CCCCCCCCCCCCCCCC(=O)NCCCC[C@H](NC(=O)[C@H](CCCCN)NC(=O)[C@H](CO)NC(=O)[C@H](Cc1c[nH]c2ccccc12)NC(=O)[C@H](CCCNC(=N)N)NC(=O)[C@@H](NC(=O)[C@@H](N)[C@@H](C)CC)C(C)C)C(=O)N[C@H](C(=O)N1CCC[C@H]1C(N)=O)C(C)C [JM #167, IVRWSKK(Pal)VP-NH2] (H-IVRWSKK(Palmitoyl)VP-NH2)
- IC50 (CXCR4): 2 nM
